Entries after “also recorded” stand apart in the source; their conditions may differ. Like-named read-outs stand apart in the source and are kept apart here.
Legend:
[1] = system: NF-κB activation in HT-29 cells; test: TNF-induced NF-κB activation, western blot of IκB-α and phospho-IκB-α; type: cell-based, human; details: TNF-α 40 ng/ml 15 min
Experimental: Further, we evaluated the selectivity of PK68 against a panel of 369 kinases provided by Reaction Biology (at 1000 nM). […] In addition, we followed on some of the active “hits” from the kinome scan. PK68 was tested against TNIK and TRKA by a reputable CRO company. […] RIPK1 is known to mediate NF-κB activation independently of its kinase activity. […] It has been shown that homodimerization of RIPK3 or MLKL induced by the dimerizer leads to necroptosis bypassing the upstream signals[10],[37]. […] This dimerized RIPK3-induced necroptosis was blocked by RIPK3 inhibitor GSK873 but was not blocked by the RIPK1 inhibitor necrostatin-1. […] (Fig. 4e).
HT-29 cells were pretreated with indicated compounds for 1h prior to stimulation with TNF-α (40ng/ml) for 15 minutes. The levels of IκB-α and phosphor-IκB-α were analyzed by western blot analysis. The NF-κB inhibitor BMS-345541 was used as a positive control.

L929 cells = test: TNF-induced necroptosis, cell viability by ATP levels; type: cell-based; details: Mus musculus, L929, 24 h
Experimental: Necroptosis is tightly regulated by RIP kinases including RIPK1 and RIPK3. To develop new necroptosis inhibitors, we screened a small-molecule library of around 240 potential kinase inhibitors that were designed with novel structures to affect the ATP-binding pocket of protein kinases. Human colon cancer HT-29 cells were treated with these compounds for […], followed by treatment with necroptotic stimuli (TNFα, Smac mimetic, and z-VAD) that are known to activate TNF-mediated necroptosis. After 48 h, cell viability was analyzed by monitoring ATP levels.
Fig. 1 PK6 efficiently blocks TNF-α induced necroptosis in both human and mouse cells. a HT-29 cells cultured in 96-well plates were pretreated with the indicated compounds (10 μM) from a library consisting of ~240 compounds that we designed with novel structures for 1 h and subsequently treated with 40 ng/ml TNF-α (T), 100 nM Smac mimetic (S), and the caspase inhibitor 20 μM z-VAD(Z) for 48 h. Cell viability was assessed by measuring ATP levels. Data are represented as the mean ± standard deviation of duplicates. b Chemical structure of PK6. c Dose response curve and EC50 ± SD value for PK6 in TNF-α induced necroptosis in HT-29 cells. Cells were pretreated with indicated concentrations of PK6 for 1 h prior to the treatment with T (40 ng/ml), S (100 nM), and Z (20 μM) for 48 h. Cell viability was assessed by measuring ATP levels. d U937 cells were pretreated with indicated concentrations of PK6 for 1 h followed by the treatment with T (40 ng/ml), S (100 nM), and Z (20 μM) for 24 h. e MEF cells were pretreated with indicated concentrations of PK6 for 1 h followed by the treatment with T (40 ng/ml), S (100 nM), and Z (20 μM) for 24 h. f L929 cells were pretreated with indicated concentrations of PK6 for 1 h prior to the treatment with S (100 nM) and Z (20 μM) for 24 h.
Fig. 2 Chemical optimization of PK6 leads to improvements in anti-necroptotic activity. a, b The effects of the indicated compounds on cell viability were examined in HT-29 cells (a) and L929 cells (b). HT-29 cells were treated as indicate for 48 h and L929 cells for 24 h. Cell viability was assessed by measuring ATP levels. Data are represented as the mean ± standard deviation of triplicates. c Structure and EC50 ± SD value of each compound are shown in the table. EC50 values are the average of at least two independent determinations. d Lead optimization of PK6 TEXT PRINTED IN THE PICTURE: (c) PK6: EC50(nM) HT-29: 1200±53; EC50(nM) L929: 760±26 | (c) PK67: EC50(nM) HT-29: 250±6.3; EC50(nM) L929: 130±6.8 | (c) PK81: EC50(nM) HT-29: 120±7.6; EC50(nM) L929: 20±0.98 | (c) PK84: EC50(nM) HT-29: 97±6.7; EC50(nM) L929: 45±2.1 | (c) PK93: EC50(nM) HT-29: 130±36; EC50(nM) L929: 30±7.4 | (c) PK86: EC50(nM) HT-29: 73±3.9; EC50(nM) L929: 15±1.0 | (c) PK68: EC50(nM) HT-29: 23±1.4; EC50(nM) L929: 13±0.85
The cell viability was analyzed by using the CellTiter-Glo Luminescent Cell Viability Assay kit following the manufacturer’s instructions (Promega). Luminescence was measured with SpectraMax i3x (Molecular Devices).

Structure (SMILES): CC(=O)Nc1nc2ccc(-c3cnc(Cl)c(NC(=O)Cc4ccccc4)c3)cc2s1 [PK6, N-(5-(2-acetamidobenzo[d]thiazol-6-yl)-2-chloropyridin-3-yl)-2-phenylacetamide]
- TNF-induced NF-κB activation [1]: no obvious effects; also recorded: no impact; also recorded: no effect
- EC50 (L929 cells; S 100 nM and Z 20 μM, read-out: EC50, TNF-induced necroptosis): ~760 nM

Structure (SMILES): CC(=O)Nc1nc2ccc(-c3cnc(C)c(NC(=O)OC4CCCCC4)c3)cc2s1 [PK68, cyclohexyl (5-(2-acetamidobenzo[d]thiazol-6-yl)-2-methylpyridin-3-yl)carbamate]
- TNF-induced NF-κB activation [1]: no obvious effects; also recorded: no impact; also recorded: no effect
- EC50 (L929 cells; read-out: EC50(nM) L929): 13 nM
